Source: patent US10660909B2, “Method for treating cancer using chemokine antagonists” (Syntrix Biosystems Inc., priority 2016, dated 2020)

Key:
[1] = system: 60 human tumor cell line panel; test: NCI 60 human tumor cell line panel, SRB growth inhibition; assay type: cell-based
Method: The chemokine CXCL8 and its receptors CXCR1 and CXCR2 have been identified as important mediators of cellular proliferation for a number of tumor cell types. To validate the relationship between CXCR1 and CXCR2 receptor antagonism and inhibition of tumor cell proliferation, SX-682 was evaluated against the 60 human tumor cell line panel at five concentration levels (0.01, 0.1, 1, 10, 100 μM) as performed by the Developmental Therapeutics Program at the National Cancer Institute (Shoemaker, 2006, Nat Rev Cancer, 6:813-23).
The human tumor cell lines of the cancer screening panel were grown in RPMI 1640 medium containing 5% fetal bovine serum and 2 mM L-glutamine. Cells were inoculated into 96 well microtiter plates in 100 μL at plating densities ranging from 5,000 to 40,000 cells/well depending on the doubling time of individual cell lines. After cell inoculation, the microtiter plates were incubated at 37° C., 5% CO2, 95% air and 100% relative humidity for 24 h prior to addition of SX-682.
After 24 h, two plates of each cell line are fixed in situ with TCA, to represent a measurement of the cell population for each cell line at the time of drug addition (Tz). SX-682 was solubilized in dimethyl sulfoxide at 400-fold the desired final maximum test concentration and stored frozen prior to use. At the time of SX-682 addition, an aliquot of frozen concentrate was thawed and diluted to twice the desired final maximum test concentration with complete medium containing 50 μg/ml gentamicin. Additional four, 10-fold or ½ log serial dilutions are made to provide a total of five drug concentrations plus control. Aliquots of 100 μl of these different drug dilutions were added to the appropriate microtiter wells already containing 100 μl of medium, resulting in the required final drug concentrations.
Following drug addition, the plates were incubated for an additional 48 h at 37° C., 5% CO2, 95% air, and 100% relative humidity. For adherent cells, the assay was terminated by the addition of cold TCA. Cells were fixed in situ by the gentle addition of 50 μl of cold 50% (w/v) TCA (final concentration, 10% TCA) and incubated for 60 minutes at 4° C. The supernatant was discarded, and the plates were washed five times with tap water and air dried. Sulforhodamine B (SRB) solution (100 μl) at 0.4% (w/v) in 1% acetic acid was added to each well, and plates were incubated for 10 minutes at room temperature. After staining, unbound dye was removed by washing five times with 1% acetic acid and the plates were air dried. Bound stain was subsequently solubilized with 10 mM TRIS, and the absorbance was read on an automated plate reader at a wavelength of 515 nm. For suspension cells, the methodology is the same except that the assay was terminated by fixing settled cells at the bottom of the wells by gently adding 50 μl of 80% TCA (final concentration, […]). Using the seven absorbance measurements (time zero, (Tz), control growth, (C), and test growth in the presence of drug at the five concentration levels (Ti)), the percentage growth was calculated at each of the drug concentrations levels. Percentage growth inhibition was calculated as: (Ti−Tz)/(C−Tz)×100 for concentrations for which Ti>/=Tz (Ti−Tz)/Tz×100 for concentrations for which Ti<Tz.
Three dose response parameters were calculated for each experimental agent. […] The drug concentration resulting in total growth inhibition (TGI) is calculated from Ti=Tz. The LC50 (concentration of drug resulting in a 50% reduction in the measured protein at the end of the drug treatment as compared to that at the beginning) indicating a net loss of cells following treatment is calculated from (Ti−Tz)/Tz×100=−50. Values are calculated for each of these three parameters if the level of activity is reached; however, if the effect is not reached or is exceeded, the value for that parameter is expressed as greater or less than the maximum or minimum concentration tested.

[2] = system: Pten^pc−/−p53^pc−/−Smad4^pc−/− mouse prostate tumors; test: Pten/p53/Smad4 triple knockout mouse model of castration resistant prostate cancer; assay type: in vivo; conditions: SX-682 50 mg/kg b.i.d. oral gavage; ICB 200 μg each anti-PD1 and anti-CTLA4 3×/week; 4-6 weeks; FIG. 12
Method: The genetically engineered Pten^pc−/−p53^pc−/−Smad4^pc−/− mouse is a prostate-specific PB promoter-driven (PB-Cre4) conditional triple knockout model (i.e., prostate-specific deletion of all three tumor suppressors, Pten, p53 and Smad4 occurs in the ‘prostate cancer’ or ‘pc’). […] SX-682 was used as a spray dried dispersion (Formulation Example 1), and was administered to mice via oral gavage as a suspension in 0.5% aq. methylcellulose. Treatment was continued for 4-6 weeks and prostate weights measured to determine tumor burden. […] Mean±SE.

[3] = system: Lewis lung carcinoma (LLC); test: LLC syngeneic mouse model of lung cancer; assay type: in vivo; conditions: LLC mice; SX-682 50 mg/kg twice daily oral; anti-PD-1 100 μg twice weekly ip; treatment from day 18; N=5; FIG. 10
Method: The Lewis lung carcinoma (LLC) mouse model (Kellar, 2015, Biomed Res Int, 2015:621324, herein incorporated by reference) was used to evaluate the effect of SX-682 alone and in combination with anti-PD-1 antibody. LLC mouse […] cells were cultured, then mice were injected with 0.5×10^6 LLC cells on day 0, and on day 18 treatment was initiated. Mice were treated with vehicle (control), SX-682 alone (50 mg/kg twice daily, oral), anti-PD-1 alone (100 μg twice weekly, ip), or SX-682 in combination with anti-PD-1 (N=5 per cohort). SX-682 was used as a spray dried dispersion (Formulation Example 1), and was administered to mice via oral gavage as a suspension in 0.5% aq. methylcellulose. The results of this experiment can be seen in FIG. 10 and FIG. 11.

[4] = system: MDSCs isolated from blood of AOM/DSS-treated BALBc mice; test: GROα-mediated MDSC migration (transwell, flow cytometry count); assay type: cell-based, mouse; conditions: SX-682 0.1, 1 and 10 μM; GROα (CXCL1) 100 ng/ml; 12 hours; FIG. 2
Method: Using the of method of Katoh, 2013, Cancer Cell, 24:631-44 (herein incorporated by reference), to induce and isolate MDSCs, male BALBc mice were given a single intraperitoneal injection of azoxymethane (AOM, 10 mg/kg). Seven days later, these mice were given 4 cycles of water and water containing 1.25% dextran sulfate sodium (DSS). One cycle consisted of providing mice with regular drinking water for 7 days, followed by 1.25% aqueous DSS for 7 days, followed by regular drinking water for 7 days. MDSCs were isolated from femurs and blood of AOM/DSS-treated BALBc mice using the Myeloid-Derived Suppressor Cell Isolation Kit (Miltenyi Biotec) after lysis of red blood cells (RBC) according to the manufacturer's instructions. GROα (CXCL1) was placed in the bottom chamber of a 24-well plate at a concentration of 100 ng/ml. MDSCs isolated from blood of AOM/DSS-treated BALBc mice were seeded at a density of 1×10^6/well in the upper chamber (3 m, BD Falcon). After incubation for 12 hours, migrated cells were quantified by flow cytometry using CountBright Absolute Counting Beads (Molecular Probes). […] The test concentrations of SX-682 were 0.1, 1 and 10 μM, and the DMSO concentration was ≤1%.

[5] = system: B16-F10 mouse melanoma cells; test: B16-F10 syngeneic mouse model of melanoma; assay type: in vivo; conditions: B16-F10 mice; SX-682 50 mg/kg twice daily oral; anti-PD-1 100 μg twice weekly ip; treatment from day 18; N=4-5; FIG. 9
Method: The B16-F10 mouse model is a validated model of melanoma, Overwijk, 2001, Curr Protoc Immunol, Chapter 20: Units 20-21 (herein incorporated by reference). It was used to evaluate the effect of SX-682 alone and in combination with anti-PD1 antibody. B16-F10 mouse melanoma cells were cultured, then mice were injected with 0.5×10^6 B16-F10 cells on day 0, and treatment was initiated on day 18. Mice were treated with vehicle (control), SX-682 alone (50 mg/kg twice daily, oral), anti-PD-1 alone (100 μg twice weekly, ip), or SX-682 in combination with anti-PD-1 (N=4-5 per cohort). SX-682 was used as a spray dried dispersion (Formulation Example 1), and was administered to mice via oral gavage as a suspension in 0.5% aq methylcellulose. […] Data and error bars are the mean±SE.

[6] = system: TRIA mouse model of melanoma; test: TRIA mouse model of melanoma; assay type: in vivo; conditions: TRIA mice; SX-682 oral via medicated feed ~10 mg/day/mouse; CP 50 mg/kg ip once weekly; FIG. 7 and 8
Method: The Tyrosine-Hras/Ink/Arf null (TRIA) is a validated mouse model of melanoma features an immuno-competent autochthonous tumor; Ras events are in >70% of all melanomas, and ˜50% lose the INK4a/ARF locus which, with B-RAF mutations, is the most common lesion of this cancer (Sharpless, 2016, Cancer Cell 29:832-45). Treatment regimens were started following tumor manifestation. SX-682 was given orally via medicated feed, at an approximate dose of 10 mg/day/mouse. Carboplatin (CP) was administered once weekly via intraperitoneal injection at a dose of 50 mg/kg.

[7] = system: T11 mouse model of breast cancer; test: T11 mouse model of breast cancer; assay type: in vivo; conditions: T11 mice; SX-682 oral via medicated feed ~10 mg/day/mouse; CP 50 mg/kg ip once weekly; 1-2 weeks; N=7; P<0.0001; FIG. 4
Description: The T11 model is a validated mouse model of breast cancer, which derives from the serial orthotopic transplantation of a murine breast tumor derived from a p53-null mouse into a syngeneic p53 competent recipient, and features sporadic, somatic K-Ras mutation (Herschkowitz, 2012, Proc Natl Acad Sci, 109:2778-83, herein incorporated by reference). Tumors from the T11 model display an RNA expression pattern characteristic of the human claudin-low disease, and are extremely aggressive, with the majority of untreated animals surviving less than 21 days from the time of enrollment in the therapy studies. Treatment regimens were started following tumor manifestation. SX-682 was given orally via medicated feed, at an approximate dose of 10 mg/day/mouse. In brief, the medicated feed was prepared by Research Diets (New Brunswick, N.J.) by incorporating 15.2 grams of SX-682 spray dried dispersion (as prepared in Formulation Example 1) into 1042 grams of standard rodent diet with 10% kcals from fat. The medicated feed was formed into pellets. Carboplatin (CP) was administered once weekly via intraperitoneal injection at a dose of 50 mg/kg. […] Mean±SE. *** P<0.0001 (linear regression).

[8] = system: C3Tag mouse model of breast cancer; test: C3Tag mouse model of breast cancer; assay type: in vivo; conditions: C3Tag mice; for median survival: SX-682 ~10 mg/day/mouse oral, CP 50 mg/kg ip weekly, up to 60 days, vehicle 18 days, FIG. 6
Description: The C31-T-antigen (C3Tag) mouse model is a validated model of human triple-negative basal cell breast cancer as shown by gene expression analysis (Maroulakou, 1994, Proc Natl Acad Sci, 91:11236-40, herein incorporated by reference). The expressed large T-antigen binds and inactivates the RB and p53 tumor suppressor genes, explaining why this model faithfully recapitulates human basal breast cancer, which also harbors RB and p53 inactivation. This model also has frequent K-Ras amplification and infrequent Ras mutations. Treatment regimens were started following tumor manifestation. SX-682 was given orally via medicated feed, at an approximate dose of 10 mg/day/mouse. Carboplatin (CP) was administered once weekly via intraperitoneal injection at a dose of 50 mg/kg.

O=C(Nc1ccc(F)cc1)c1cnc(SCc2cc(OC(F)(F)F)ccc2B(O)O)nc1 [SX-682]
proliferation of human tumor cells ([1]; 60 cell lines, 0.01, 0.1, 1, 10, 100 μM, 48 h, FIG. 3A-3I): directly affect the proliferation of human tumor cells | inhibition of tumor cell proliferation, renal cancer cell lines ([1]; 786-0, CAK-1, TK-10, RXF 393, UO-31, ACHN, SN12C, FIG. 3G): direct inhibition of tumor cell proliferation | inhibition of tumor cell proliferation, non-small cell lung cancer cell lines ([1]; A549, H226, H460, H23, H522, H322M, HOP-62, HOP-92, FIG. 3B): direct inhibition of tumor cell proliferation | inhibition of tumor cell proliferation, leukemia cell lines ([1]; CCRF-CEM, MOLT-4, HL-60, RPMI-8226, K-562, SR, 10^−8 to 10^−4 M, FIG. 3A): direct inhibition of tumor cell proliferation | inhibition of tumor cell proliferation, colon cancer cell lines ([1]; COLO 205, HCT-15, HCC-2998, KM12, HCT-116, SW-620, FIG. 3C): direct inhibition of tumor cell proliferation | inhibition of tumor cell proliferation, ovarian cancer cell lines ([1]; IBROV1, OVCAR-8, OVCAR-3, NCI/ADR-RES, OVCAR-5, SK-OV-3, FIG. 3F): direct inhibition of tumor cell proliferation | inhibition of tumor cell proliferation, melanoma cell lines ([1]; LOX IMVI, MDA-MB-435, SK-MEL-5, MALME-3M, SK-MEL-2, UACC-257, M14, SK-MEL-28, UACC-62, FIG. 3E): direct inhibition of tumor cell proliferation | inhibition of tumor cell proliferation, breast cancer cell lines ([1]; MCF7, BT-549, MDA-MB-231, T-47D, HS 578T, MDA-MB-468, FIG. 3I): direct inhibition of tumor cell proliferation | inhibition of tumor cell proliferation, prostate cancer cell lines ([1]; PC-3, DU-145, FIG. 3H): direct inhibition of tumor cell proliferation | inhibition of tumor cell proliferation, CNS cancer cell lines ([1]; SF-268, SNB-19, SF-295, SNB-75, SF-539, FIG. 3D): direct inhibition of tumor cell proliferation | tumor burden (prostate weight) [2]: inhibited prostate cancer | tumor growth (tumor area) [3]: significantly slowed tumor growth | inhibition of GROα-mediated MDSC migration [4]: effectively inhibit GROα-mediated MDSC migration in a dose-dependent manner | tumor growth (tumor area) [5]: significantly slowed tumor growth | tumor growth (tumor volume) [6]: significantly slowed tumor growth comparable to CP alone | tumor growth (tumor volume) [7]: effective therapy for breast cancer | tumor growth (tumor volume) ([8]; SX-682 oral via medicated feed ~10 mg/day/mouse, CP 50 mg/kg ip once weekly, 4-6 weeks, N=10-12, FIG. 5): significantly reduced tumor growth as compared to untreated controls | median survival [8]: 28 days

N.N.O=C([O-])C1(C(=O)[O-])CCC1.[Pt+2] [carboplatin, reference compound]
median survival [8]: 28 days
